Results taken from publication PMC5933747 (PLoS ONE, 2018).

What follows are molecules tested against human NaV1.5 (Homo sapiens, UniProt Q14524) (assay: IonWorks Quattro (IWQ) electrophysiology, human NaV1.5). Settings: human; read-out: Ala mutant IWQ IC50 NaV1.5.
Format: cell-based

human NaV1.5, sequence (Q14524 whole entry): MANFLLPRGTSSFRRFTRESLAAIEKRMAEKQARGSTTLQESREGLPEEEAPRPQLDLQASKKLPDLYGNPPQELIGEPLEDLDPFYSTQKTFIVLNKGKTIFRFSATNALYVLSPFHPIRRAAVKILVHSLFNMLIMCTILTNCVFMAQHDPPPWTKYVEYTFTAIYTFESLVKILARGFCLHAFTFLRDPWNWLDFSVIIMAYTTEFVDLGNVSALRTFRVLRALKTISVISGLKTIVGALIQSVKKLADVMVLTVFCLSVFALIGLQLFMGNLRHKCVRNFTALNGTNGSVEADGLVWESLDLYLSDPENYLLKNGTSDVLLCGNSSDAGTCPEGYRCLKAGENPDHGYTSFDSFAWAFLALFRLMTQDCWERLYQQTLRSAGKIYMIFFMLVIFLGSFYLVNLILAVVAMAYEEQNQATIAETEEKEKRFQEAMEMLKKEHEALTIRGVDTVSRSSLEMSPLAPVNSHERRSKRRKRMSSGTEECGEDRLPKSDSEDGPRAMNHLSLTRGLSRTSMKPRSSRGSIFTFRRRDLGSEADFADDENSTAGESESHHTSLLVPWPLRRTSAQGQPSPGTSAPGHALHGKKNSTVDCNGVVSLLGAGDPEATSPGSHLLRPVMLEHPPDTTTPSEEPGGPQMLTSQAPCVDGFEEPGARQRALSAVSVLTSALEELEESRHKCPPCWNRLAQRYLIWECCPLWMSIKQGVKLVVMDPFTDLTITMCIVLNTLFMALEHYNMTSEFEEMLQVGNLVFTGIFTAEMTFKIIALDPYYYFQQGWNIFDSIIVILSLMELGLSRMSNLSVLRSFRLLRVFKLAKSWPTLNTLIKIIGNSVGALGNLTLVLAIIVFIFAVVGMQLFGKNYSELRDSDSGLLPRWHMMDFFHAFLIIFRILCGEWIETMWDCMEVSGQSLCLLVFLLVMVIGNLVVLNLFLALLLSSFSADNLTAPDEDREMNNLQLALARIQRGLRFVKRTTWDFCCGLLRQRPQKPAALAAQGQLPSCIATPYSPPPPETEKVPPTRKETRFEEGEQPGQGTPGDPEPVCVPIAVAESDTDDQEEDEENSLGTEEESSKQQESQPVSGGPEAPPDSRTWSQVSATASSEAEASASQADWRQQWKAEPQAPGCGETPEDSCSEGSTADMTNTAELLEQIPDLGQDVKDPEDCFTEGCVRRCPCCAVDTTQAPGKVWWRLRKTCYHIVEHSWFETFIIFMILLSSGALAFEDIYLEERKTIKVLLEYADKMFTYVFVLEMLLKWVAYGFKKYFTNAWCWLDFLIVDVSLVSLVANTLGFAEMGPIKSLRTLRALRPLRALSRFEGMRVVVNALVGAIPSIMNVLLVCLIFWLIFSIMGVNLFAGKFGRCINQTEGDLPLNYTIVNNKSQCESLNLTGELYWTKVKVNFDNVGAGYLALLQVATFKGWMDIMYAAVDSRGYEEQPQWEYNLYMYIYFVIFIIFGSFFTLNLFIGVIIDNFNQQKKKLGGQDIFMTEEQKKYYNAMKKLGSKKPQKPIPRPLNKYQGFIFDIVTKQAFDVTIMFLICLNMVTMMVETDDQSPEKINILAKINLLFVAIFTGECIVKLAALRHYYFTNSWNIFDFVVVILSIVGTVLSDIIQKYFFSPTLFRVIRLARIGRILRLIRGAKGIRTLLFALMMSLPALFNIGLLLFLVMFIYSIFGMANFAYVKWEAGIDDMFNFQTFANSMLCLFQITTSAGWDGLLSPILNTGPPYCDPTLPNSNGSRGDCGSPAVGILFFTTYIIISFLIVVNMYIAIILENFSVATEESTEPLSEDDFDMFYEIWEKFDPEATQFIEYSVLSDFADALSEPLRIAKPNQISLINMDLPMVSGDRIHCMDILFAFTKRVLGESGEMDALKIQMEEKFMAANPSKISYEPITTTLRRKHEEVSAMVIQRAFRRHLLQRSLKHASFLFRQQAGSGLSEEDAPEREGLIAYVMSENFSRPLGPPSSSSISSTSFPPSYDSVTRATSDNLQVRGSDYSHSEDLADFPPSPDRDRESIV

Structure (SMILES)	IC50
CC[C@H](C)[C@H](NC(=O)[C@H](C)NC(=O)[C@H](CCCCN)NC(=O)[C@H](CCCNC(=N)N)NC(=O)[C@@H]1CSSC[C@@H]2NC(=O)[C@H](C)NC(=O)[C@H](CCCNC(=N)N)NC(=O)[C@H](CCCCN)NC(=O)[C@H](CO)NC(=O)[C@H](CC(=O)O)NC(=O)[C@@H]3CSSC[C@H](NC(=O)[C@H](CCCNC(=N)N)NC(=O)[C@H](CC(C)C)NC(=O)CNC(=O)[C@H](CCC(=O)O)NC(=O)[C@H](CSSC[C@H](NC(=O)[C@@H](N)Cc4ccc(O)cc4)C(=O)N[C@@H](CCC(N)=O)C(=O)N[C@@H](CCCCN)C(=O)N[C@@H](Cc4c[nH]c5ccccc45)C(=O)N[C@@H](CCSC)C(=O)N[C@@H](Cc4c[nH]c5ccccc45)C(=O)N[C@@H]([C@@H](C)O)C(=O)N3)NC2=O)C(=O)N[C@@H](CCCCN)C(=O)N[C@@H](CC(C)C)C(=O)N[C@@H](Cc2c[nH]c3ccccc23)C(=O)N1)C(N)=O [I28 Ala mutant]	> 5 µM
CC[C@H](C)[C@H](NC(=O)[C@H](CCCCN)NC(=O)[C@H](CCCNC(=N)N)NC(=O)[C@@H]1CSSC[C@@H]2NC(=O)[C@H](C)NC(=O)[C@H](CCCNC(=N)N)NC(=O)[C@H](CCCCN)NC(=O)[C@H](CO)NC(=O)[C@H](CC(=O)O)NC(=O)[C@@H]3CSSC[C@H](NC(=O)[C@H](CCCNC(=N)N)NC(=O)[C@H](CC(C)C)NC(=O)CNC(=O)[C@H](CCC(=O)O)NC(=O)[C@H](CSSC[C@H](NC(=O)[C@@H](N)Cc4ccc(O)cc4)C(=O)N[C@@H](CCC(N)=O)C(=O)N[C@@H](CCCCN)C(=O)N[C@@H](Cc4c[nH]c5ccccc45)C(=O)N[C@@H](CCSC)C(=O)N[C@@H](Cc4c[nH]c5ccccc45)C(=O)N[C@@H]([C@@H](C)O)C(=O)N3)NC2=O)C(=O)N[C@@H](CCCCN)C(=O)N[C@@H](CC(C)C)C(=O)N[C@@H](Cc2c[nH]c3ccccc23)C(=O)N1)C(=O)N[C@@H](C)C(N)=O [I29 Ala mutant]	> 5 µM
CC[C@H](C)[C@H](NC(=O)[C@@H](NC(=O)[C@H](CCCCN)NC(=O)[C@H](CCCNC(=N)N)NC(=O)[C@@H]1CSSC[C@@H]2NC(=O)[C@H](C)NC(=O)[C@H](CCCNC(=N)N)NC(=O)[C@H](C)NC(=O)[C@H](CO)NC(=O)[C@H](CC(=O)O)NC(=O)[C@@H]3CSSC[C@H](NC(=O)[C@H](CCCNC(=N)N)NC(=O)[C@H](CC(C)C)NC(=O)CNC(=O)[C@H](CCC(=O)O)NC(=O)[C@H](CSSC[C@H](NC(=O)[C@@H](N)Cc4ccc(O)cc4)C(=O)N[C@@H](CCC(N)=O)C(=O)N[C@@H](CCCCN)C(=O)N[C@@H](Cc4c[nH]c5ccccc45)C(=O)N[C@@H](CCSC)C(=O)N[C@@H](Cc4c[nH]c5ccccc45)C(=O)N[C@@H]([C@@H](C)O)C(=O)N3)NC2=O)C(=O)N[C@@H](CCCCN)C(=O)N[C@@H](CC(C)C)C(=O)N[C@@H](Cc2c[nH]c3ccccc23)C(=O)N1)[C@@H](C)CC)C(N)=O [K12 Ala mutant]	> 5 µM
CC[C@H](C)[C@H](NC(=O)[C@@H](NC(=O)[C@H](CCCCN)NC(=O)[C@H](CCCNC(=N)N)NC(=O)[C@@H]1CSSC[C@@H]2NC(=O)[C@H](C)NC(=O)[C@H](CCCNC(=N)N)NC(=O)[C@H](CCCCN)NC(=O)[C@H](CO)NC(=O)[C@H](CC(=O)O)NC(=O)[C@@H]3CSSC[C@H](NC(=O)[C@H](CCCNC(=N)N)NC(=O)[C@H](CC(C)C)NC(=O)CNC(=O)[C@H](CCC(=O)O)NC(=O)[C@H](CSSC[C@H](NC(=O)[C@@H](N)Cc4ccc(O)cc4)C(=O)N[C@@H](CCC(N)=O)C(=O)N[C@@H](CCCCN)C(=O)N[C@@H](Cc4c[nH]c5ccccc45)C(=O)N[C@@H](CCSC)C(=O)N[C@@H](Cc4c[nH]c5ccccc45)C(=O)N[C@@H]([C@@H](C)O)C(=O)N3)NC2=O)C(=O)N[C@@H](C)C(=O)N[C@@H](CC(C)C)C(=O)N[C@@H](Cc2c[nH]c3ccccc23)C(=O)N1)[C@@H](C)CC)C(N)=O [K22 Ala mutant]	> 5 µM
CC[C@H](C)[C@H](NC(=O)[C@@H](NC(=O)[C@H](CCCCN)NC(=O)[C@H](CCCNC(=N)N)NC(=O)[C@@H]1CSSC[C@@H]2NC(=O)[C@H](C)NC(=O)[C@H](CCCNC(=N)N)NC(=O)[C@H](CCCCN)NC(=O)[C@H](CO)NC(=O)[C@H](CC(=O)O)NC(=O)[C@@H]3CSSC[C@H](NC(=O)[C@H](CCCNC(=N)N)NC(=O)[C@H](CC(C)C)NC(=O)CNC(=O)[C@H](CCC(=O)O)NC(=O)[C@H](CSSC[C@H](NC(=O)[C@@H](N)Cc4ccc(O)cc4)C(=O)N[C@@H](CCC(N)=O)C(=O)N[C@@H](CCCCN)C(=O)N[C@@H](Cc4c[nH]c5ccccc45)C(=O)N[C@@H](CCSC)C(=O)N[C@@H](Cc4c[nH]c5ccccc45)C(=O)N[C@@H]([C@@H](C)O)C(=O)N3)NC2=O)C(=O)N[C@@H](CCCCN)C(=O)N[C@@H](C)C(=O)N[C@@H](Cc2c[nH]c3ccccc23)C(=O)N1)[C@@H](C)CC)C(N)=O [L23 Ala mutant]	> 5 µM
CC[C@H](C)[C@H](NC(=O)[C@@H](NC(=O)[C@H](CCCCN)NC(=O)[C@H](CCCNC(=N)N)NC(=O)[C@@H]1CSSC[C@@H]2NC(=O)[C@H](C)NC(=O)[C@H](CCCNC(=N)N)NC(=O)[C@H](CCCCN)NC(=O)[C@H](CO)NC(=O)[C@H](CC(=O)O)NC(=O)[C@@H]3CSSC[C@H](NC(=O)[C@H](CCCNC(=N)N)NC(=O)[C@H](CC(C)C)NC(=O)CNC(=O)[C@H](CCC(=O)O)NC(=O)[C@H](CSSC[C@H](NC(=O)[C@@H](N)Cc4ccc(O)cc4)C(=O)N[C@@H](CCC(N)=O)C(=O)N[C@@H](CCCCN)C(=O)N[C@@H](Cc4c[nH]c5ccccc45)C(=O)N[C@@H](C)C(=O)N[C@@H](Cc4c[nH]c5ccccc45)C(=O)N[C@@H]([C@@H](C)O)C(=O)N3)NC2=O)C(=O)N[C@@H](CCCCN)C(=O)N[C@@H](CC(C)C)C(=O)N[C@@H](Cc2c[nH]c3ccccc23)C(=O)N1)[C@@H](C)CC)C(N)=O [M6 Ala mutant]	> 5 µM
CC[C@H](C)[C@H](NC(=O)[C@@H](NC(=O)[C@H](CCCCN)NC(=O)[C@H](CCCNC(=N)N)NC(=O)[C@@H]1CSSC[C@@H]2NC(=O)[C@H](C)NC(=O)[C@H](C)NC(=O)[C@H](CCCCN)NC(=O)[C@H](CO)NC(=O)[C@H](CC(=O)O)NC(=O)[C@@H]3CSSC[C@H](NC(=O)[C@H](CCCNC(=N)N)NC(=O)[C@H](CC(C)C)NC(=O)CNC(=O)[C@H](CCC(=O)O)NC(=O)[C@H](CSSC[C@H](NC(=O)[C@@H](N)Cc4ccc(O)cc4)C(=O)N[C@@H](CCC(N)=O)C(=O)N[C@@H](CCCCN)C(=O)N[C@@H](Cc4c[nH]c5ccccc45)C(=O)N[C@@H](CCSC)C(=O)N[C@@H](Cc4c[nH]c5ccccc45)C(=O)N[C@@H]([C@@H](C)O)C(=O)N3)NC2=O)C(=O)N[C@@H](CCCCN)C(=O)N[C@@H](CC(C)C)C(=O)N[C@@H](Cc2c[nH]c3ccccc23)C(=O)N1)[C@@H](C)CC)C(N)=O [R13 Ala mutant]	> 5 µM

Same assay, conditions: human; read-out: Glu mutant IWQ IC50 NaV1.5

Structure (SMILES)	IC50
CC[C@H](C)[C@H](NC(=O)[C@@H](NC(=O)[C@H](CCCCN)NC(=O)[C@H](CCCNC(=N)N)NC(=O)[C@@H]1CSSC[C@@H]2NC(=O)[C@H](CCC(=O)O)NC(=O)[C@H](CCCNC(=N)N)NC(=O)[C@H](CCCCN)NC(=O)[C@H](CO)NC(=O)[C@H](CC(=O)O)NC(=O)[C@@H]3CSSC[C@H](NC(=O)[C@H](CCCNC(=N)N)NC(=O)[C@H](CC(C)C)NC(=O)CNC(=O)[C@H](CCC(=O)O)NC(=O)[C@H](CSSC[C@H](NC(=O)[C@@H](N)Cc4ccc(O)cc4)C(=O)N[C@@H](CCC(N)=O)C(=O)N[C@@H](CCCCN)C(=O)N[C@@H](Cc4c[nH]c5ccccc45)C(=O)N[C@@H](CCSC)C(=O)N[C@@H](Cc4c[nH]c5ccccc45)C(=O)N[C@@H]([C@@H](C)O)C(=O)N3)NC2=O)C(=O)N[C@@H](CCCCN)C(=O)N[C@@H](CC(C)C)C(=O)N[C@@H](Cc2c[nH]c3ccccc23)C(=O)N1)[C@@H](C)CC)C(N)=O [A14 Glu mutant]	> 5 µM
CC[C@H](C)[C@H](NC(=O)[C@H](CCCCN)NC(=O)[C@H](CCCNC(=N)N)NC(=O)[C@@H]1CSSC[C@@H]2NC(=O)[C@H](C)NC(=O)[C@H](CCCNC(=N)N)NC(=O)[C@H](CCCCN)NC(=O)[C@H](CO)NC(=O)[C@H](CC(=O)O)NC(=O)[C@@H]3CSSC[C@H](NC(=O)[C@H](CCCNC(=N)N)NC(=O)[C@H](CC(C)C)NC(=O)CNC(=O)[C@H](CCC(=O)O)NC(=O)[C@H](CSSC[C@H](NC(=O)[C@@H](N)Cc4ccc(O)cc4)C(=O)N[C@@H](CCC(N)=O)C(=O)N[C@@H](CCCCN)C(=O)N[C@@H](Cc4c[nH]c5ccccc45)C(=O)N[C@@H](CCSC)C(=O)N[C@@H](Cc4c[nH]c5ccccc45)C(=O)N[C@@H]([C@@H](C)O)C(=O)N3)NC2=O)C(=O)N[C@@H](CCCCN)C(=O)N[C@@H](CC(C)C)C(=O)N[C@@H](Cc2c[nH]c3ccccc23)C(=O)N1)C(=O)N[C@@H](CCC(=O)O)C(N)=O [I29 Glu mutant]	> 5 µM
CC[C@H](C)[C@H](NC(=O)[C@@H](NC(=O)[C@H](CCCCN)NC(=O)[C@H](CCCNC(=N)N)NC(=O)[C@@H]1CSSC[C@@H]2NC(=O)[C@H](C)NC(=O)[C@H](CCCNC(=N)N)NC(=O)[C@H](CCCCN)NC(=O)[C@H](CO)NC(=O)[C@H](CC(=O)O)NC(=O)[C@@H]3CSSC[C@H](NC(=O)[C@H](CCCNC(=N)N)NC(=O)[C@H](CC(C)C)NC(=O)CNC(=O)[C@H](CCC(=O)O)NC(=O)[C@H](CSSC[C@H](NC(=O)[C@@H](N)Cc4ccc(O)cc4)C(=O)N[C@@H](CCC(N)=O)C(=O)N[C@@H](CCCCN)C(=O)N[C@@H](Cc4c[nH]c5ccccc45)C(=O)N[C@@H](CCSC)C(=O)N[C@@H](Cc4c[nH]c5ccccc45)C(=O)N[C@@H]([C@@H](C)O)C(=O)N3)NC2=O)C(=O)N[C@@H](CCCCN)C(=O)N[C@@H](CCC(=O)O)C(=O)N[C@@H](Cc2c[nH]c3ccccc23)C(=O)N1)[C@@H](C)CC)C(N)=O [L23 Glu mutant]	> 5 µM

Same assay, conditions: read-out: Ala mutant IWQ IC50 NaV1.5

Structure (SMILES)	IC50
CC[C@H](C)[C@H](NC(=O)[C@@H](NC(=O)[C@H](CCCCN)NC(=O)[C@H](CCCNC(=N)N)NC(=O)[C@@H]1CSSC[C@@H]2NC(=O)[C@H](C)NC(=O)[C@H](CCCNC(=N)N)NC(=O)[C@H](CCCCN)NC(=O)[C@H](CO)NC(=O)[C@H](CC(=O)O)NC(=O)[C@@H]3CSSC[C@H](NC(=O)[C@H](CCCNC(=N)N)NC(=O)[C@H](CC(C)C)NC(=O)CNC(=O)[C@H](C)NC(=O)[C@H](CSSC[C@H](NC(=O)[C@@H](N)Cc4ccc(O)cc4)C(=O)N[C@@H](CCC(N)=O)C(=O)N[C@@H](CCCCN)C(=O)N[C@@H](Cc4c[nH]c5ccccc45)C(=O)N[C@@H](CCSC)C(=O)N[C@@H](Cc4c[nH]c5ccccc45)C(=O)N[C@@H]([C@@H](C)O)C(=O)N3)NC2=O)C(=O)N[C@@H](CCCCN)C(=O)N[C@@H](CC(C)C)C(=O)N[C@@H](Cc2c[nH]c3ccccc23)C(=O)N1)[C@@H](C)CC)C(N)=O [E17 Ala mutant]	> 5 µM
